{
  "source": "patent US12605453B2",
  "about": "“CP2C-targeting peptide-based anticancer agent” (Industry-University Cooperation Foundation Hanyang …, priority 2019, dated 2026)",
  "key": {"[1]": {"test_system": "Hep3B xenograft mice", "format": "in vivo", "protocol": "To analyze the anticancer efficacy of the CP2c target peptide-fatty acid conjugates synthesized in Preparation Example 2 in animal models, ACP52CG and ACP52CK were injected into the Hep3B xenograft mice via tail vein 5 times at 3-day intervals.\nACP52CGK was injected into the Hep3B xenograft mice via tail vein at 3 different concentrations (1.39, 2.77, or 5.54 mg/kg) 5 times at 3-day intervals. The tumor volume was measured at every three days after drug injection. The tumor and major tissues were excised from the mice sacrificed on the 24th day after the tumor cell injection. The tumor was weighed and fixed with 4% formaldehyde together with major organs. After making tissue slides through paraffin sections, hematoxylin/eosin staining was performed. The collected blood samples were subjected to basic CBC analysis using a Coulter LH 750 hematology analyzer. The acquired data were statistically processed using an Excel program.\nACP52CGK was injected into Hep3B xenograft mice via tail vein 5 times at intervals of 5 days at 3 different concentrations (1.39, 2.77, 5.54 mg/kg), and the anticancer effect was evaluated in the same manner as described above. […] As a result of a comprehensive analysis of all the results, 2.77 mg/kg was the optimal concentration."}, "[2]": {"test_system": "cells primary cultured from PDX (patient derived xenograft) tumor tissue", "assay": "Efficacy in cells primary cultured from PDX tumor tissue", "format": "cell-based"}, "[3]": {"test_system": "MDA-MB-231 (LM1) xenograft mice", "format": "in vivo", "protocol": "The anticancer effect of ACP52CGK was analyzed in MDA-MB-231 (LM1) xenograft mice in the same manner as in the Hep3B xenograft mouse model experiments."}, "[4]": {"assay": "ELISA for antibody formation in sera of injected rabbits (immunogenicity)", "conditions": "rabbit, in vivo", "from_the_text": "To verify this, immunogenicity of ACP52CG and ACP52CK was directly tested in the process of deriving the final new drug candidate. Since the final candidate material might be a C-16 palmitoyl acid-conjugated ACP52C peptide, which is not different with ACP52CG and ACP52CK in terms of chemical composition, it was decided to analyze whether antibodies were formed on ACP52CG and ACP52CK. […] Therefore, it was concluded that the final candidate material (ACP52CGK) would also not show immunogenicity in the human body (FIG. 21)."}, "[5]": {"test_system": "various cancer cell lines", "assay": "In vitro anticancer effect of C16 fatty acid-binding peptides in various cancer cells", "format": "cell-based", "procedure": "The anticancer effect of the CP2c-targeting peptide-fatty acid conjugate synthesized in Preparation Example 2 was analyzed in various cancer cells."}, "[6]": {"assay": "Repeated toxicity test of ACP52CGK, 28 days, female and male mice", "format": "in vivo, mouse", "conditions": "100 mg/kg", "protocol": "(§1) A repeated toxicity test for the in vivo administration of ACP52CGK was conducted using female and male mice. […] As a full-scale experiment, after intravenous infusion of ACP52CGK for 28 days at 3-day intervals into the solvent group and high-dose group (100 mg/Kg) of 6 males and females each, the weight change, drinking water intake, and main histological analysis of organs, organ weight, hematological tests and blood biochemical tests were analyzed."}, "[7]": {"test_system": "normal cell line", "assay": "Cell growth analysis in normal cell line", "format": "cell-based", "from_the_text": "FIGS. 10a to 10g illustrate cell growth analysis results dependent upon treatment with ACP52CGK (=γC16-ACP52 cm) in normal cell lines (BEAS2B and hMSC) and cancer cell lines (Hep3B, Hs746T, Caov-3, MDA-MB-231, U343, HCT116, PANC1, PC3, A549, and THP-1)."}, "[8]": {"assay": "In vivo half-life by live imaging of Cy5-labeled peptide fluorescence in the mouse body", "conditions": "whole body (mouse body, live imaging), intravenous", "procedure": "(§3) To analyze the in vivo half-life of ACP52CGK, Cy5-labeled ACP52CGK was injected into the tail vein of the mouse, and then the fluorescence intensity remaining in the mouse body was measured over time by live imaging process."}, "[9]": {"assay": "Degradation in mouse blood samples after tail vein injection, HPLC", "format": "in vivo", "procedure": "(§4) The ACP52C half-life in the solution containing serum was analyzed by HPLC (model: UHPLC DIONEX Ultimate 3000; Flow=1.000 ml/min) after incubation of ACP52C in the solution containing 10% serum for various times and then removing serum proteins with Centricon (Mw10,000) before HPLC analysis. […] Meanwhile, after injecting ACP52C into the mouse via tail vein, blood samples were extracted over time and the degree of ACP52C degradation in the blood samples was analyzed by HPLC."}, "[10]": {"test_system": "cell cycle (G2/M, subG1)", "assay": "FACS cell cycle analysis after cell cycle synchronization", "format": "cell-based", "from_the_text": "The growth inhibitory and cell death-inducing efficacy of ACP52C was confirmed by FACS analysis by treating cells with ACPS2C after synchronizing the cell cycle to the G1/S phase through a double thymidine block method."}, "[11]": {"test_system": "lung cancer cell lines (A549, PC9, KCL22)", "assay": "Immunoblot of CP2c pathway proteins in lung cancer cell lines treated with ACP52C", "format": "cell-based", "from_the_text": "(§2) Since MDM2p60 is known to be a protein in which the C-terminal region of MDM2p90 comprising sites (S386, S395, and S407) phosphorylated by ATM is deleted, it was speculated that the MDM2 degradation would not be properly regulated by ACP52C treatment (FIG. 29, FIGS. 30a to 30c)."}, "[12]": {"assay": "Preliminary repeated toxicity test of ACP52C", "format": "in vivo, mouse", "conditions": "100 mg/kg and 1000 mg/kg repeatedly administered twice", "protocol": "as §1"}, "[13]": {"conditions": "mouse, in vivo", "procedure": "as §3"}, "[14]": {"test_system": "A549 cell line in which MDM2 overexpression is chronically induced", "assay": "MTT assay in A549 cell line with chronically induced MDM2 overexpression", "format": "cell-based", "conditions": "doxycycline for 3 weeks, MDM2p90 overexpressed", "from_the_text": "as §2"}, "[15]": {"test_system": "various cancer cell lines", "assay": "Anticancer effect of ACP52C in various carcinomas (GI50, FIG. 1)", "format": "cell-based", "from_the_text": "FIG. 1 illustrates GI50 values dependent upon ACP52C treatment in various cancer cell lines.\nThe selected peptide binds to CP2c and inhibits the formation of a transcription factor complex including CP2c (CP2c homotetramer and CP2c/CP2b/PIAS1 heterohexamer), thereby indirectly interfering with DNA binding of CP2c."}, "[16]": {"test_system": "CHK1/2, CDC25c, CDK1, cyclin B, caspases", "assay": "Expression of cell cycle and apoptosis marker proteins after ACP52C treatment", "format": "cell-based"}, "[17]": {"assay": "Half-life in solution containing 10% serum by HPLC", "format": "in vitro ADME", "conditions": "HPLC after removing serum proteins", "procedure": "as §4"}, "[18]": {"conditions": "ACP52C-induced G2/M phase arrest"}},
  "note": "*1 amine or outer side, *2 acyl side, *3 side chain or, on linkers, in order; H or OH if unused. Where a SMILES comes first, the peptide text is derived from it. Side-chain parts run from the residue outwards. The star is where a group is joined. γGlu = O=C(O)[C@H](CCC(=O)[*:2])N[*:1]; Palmitoyl = CCCCCCCCCCCCCCCC(=O)*",
  "data": [
    {"smiles": "CCCCCCCCCCCCCCCC(=O)N[C@@H](CCC(=O)NCCCC[C@H](NC(=O)CNC(=O)CNC(=O)[C@@H]1CCCN1C(=O)[C@H](CCCNC(=N)N)NC(=O)[C@H](CCC(N)=O)NC(=O)[C@@H]1CCCN1C(=O)[C@H](Cc1ccc(O)cc1)NC(=O)[C@H](CC(N)=O)NC(C)=O)C(=O)NCC(=O)NCC(=O)N[C@@H](CS)C(=O)N[C@@H](CCCNC(=N)N)C(=O)NCC(=O)N[C@@H](CC(=O)O)C(=O)N[C@@H](CCCCN)C(=O)NCC(=O)N1CCC[C@H]1C(=O)N[C@@H](CC(=O)O)C(=O)N[C@@H](CS)C(N)=O)C(=O)O", "note": "[ACP52CGK] (Ac-NYPQRPGGK([γGlu-Palmitoyl])GGCRGDKGPDC-NH2)", "values": [
      {"measurement": "tumor inhibition and metastasis inhibition effects", "setting": "[1]; 1.39, 2.77, 5.54 mg/kg, tail vein 5 times at intervals of 5 days", "result": "tumor inhibition and metastasis inhibition effects superior to the sorafenib and ACP52C treatment groups"},
      {"measurement": "tumor metastasis inhibition effect (tumor area metastasized to the lung)", "setting": "[1]; 1.39, 2.77, or 5.54 mg/kg, 5 times at 3-day intervals", "result": "superior to ACP52C in the tumor metastasis inhibition effect"},
      {"measurement": "tumor suppressive effect", "setting": "[1]; 1.39, 2.77, or 5.54 mg/kg, tail vein 5 times at 3-day intervals", "result": "tumor suppressive effect similar to that of ACP52C"},
      {"measurement": "optimal concentration", "setting": "[1]; comprehensive analysis of 3-day and 5-day interval results", "result": 2.77, "unit": "mg/kg"},
      {"measurement": "sensitivity across PDX generations", "setting": "[2]; cells derived from the same origin, each generation", "result": "not significantly different"},
      {"measurement": "resistance", "setting": "[2]; primarily cultured cells from some PDX tumor tissues", "result": "showed resistance"},
      {"measurement": "tumor suppression and metastasis inhibition effects", "setting": "[3]; 1.39, 2.77, or 5.54 mg/kg, 3-day and 5-day intervals", "result": "superior to those of the sorafenib and ACP52C-treated groups"},
      {"measurement": "optimal concentration", "setting": "[3]; mouse, in vivo", "result": 2.77, "unit": "mg/kg"},
      {"measurement": "immune response of sera from rabbits injected with ACP52CG and ACP52CK three times (ELISA)", "setting": "[4]", "result": "did not induce immune responses"},
      {"measurement": "GI50 values compared with control (ACP52C)", "setting": "[5]; 48 hours after treatment", "result": "like or more efficient than that of the control"},
      {"measurement": "cancer cell-specific cell death", "setting": "[5]; compared with control ACP52C", "result": "induced cancer cell-specific cell death similarly to the control group"},
      {"measurement": "Relative organ weight, Kidney", "setting": "[6]; female mice", "result": "1.34 ± 0.06", "unit": "%"},
      {"measurement": "Relative organ weight, Kidney", "setting": "[6]; male mice", "result": "1.50 ± 0.08", "unit": "%"},
      {"measurement": "Absolute organ weight, Epididymis", "setting": "[6]; mouse, in vivo", "result": "0.0482 ± 0.0127", "unit": "g"},
      {"measurement": "Absolute organ weight, Ovary", "setting": "[6]; mouse, in vivo", "result": "0.0059 ± 0.0012", "unit": "g"},
      {"measurement": "Absolute organ weight, Testis", "setting": "[6]; mouse, in vivo", "result": "0.1693 ± 0.0169", "unit": "g"},
      {"measurement": "Absolute organ weight, Uterus", "setting": "[6]; mouse, in vivo", "result": "0.0638 ± 0.0227", "unit": "g"},
      {"measurement": "Relative organ weight, Epididymis", "setting": "[6]; mouse, in vivo", "result": "0.24 ± 0.07", "unit": "%"},
      {"measurement": "Relative organ weight, Ovary", "setting": "[6]; mouse, in vivo", "result": "0.0326 ± 0.0054", "unit": "%"},
      {"measurement": "Relative organ weight, Testis", "setting": "[6]; mouse, in vivo", "result": "0.83 ± 0.08", "unit": "%"},
      {"measurement": "Relative organ weight, Uterus", "setting": "[6]; mouse, in vivo", "result": "0.35 ± 0.12", "unit": "%"},
      {"measurement": "effect on normal cells", "setting": "[7]", "result": "no significant effect on normal cells"},
      {"measurement": "half-life", "setting": "[8]", "result": "~20.2", "unit": "h"}
    ]},
    {"smiles": "CC(=O)N[C@@H](CC(N)=O)C(=O)N[C@@H](Cc1ccc(O)cc1)C(=O)N1CCC[C@H]1C(=O)N[C@@H](CCC(N)=O)C(=O)N[C@@H](CCCNC(=N)N)C(=O)N1CCC[C@H]1C(=O)N[C@@H](CS)C(=O)N[C@@H](CCCNC(=N)N)C(=O)NCC(=O)N[C@@H](CC(=O)O)C(=O)N[C@@H](CCCCN)C(=O)NCC(=O)N1CCC[C@H]1C(=O)N[C@@H](CC(=O)O)C(=O)N[C@@H](CS)C(N)=O", "note": "[ACP52C] (Ac-NYPQRPCRGDKGPDC-NH2)", "values": [
      {"measurement": "half-life in mouse blood", "setting": "[9]", "result": "about 2 hours"},
      {"measurement": "cell cycle effect (FACS)", "setting": "[10]; cell line synchronized to G2/M phase with thymidine/nocodazole", "result": "the cell cycle was arrested at the subG1 phase and cell death was induced"},
      {"measurement": "cell cycle effect (FACS)", "setting": "[10]; cells synchronized to G1/S phase by double thymidine block", "result": "cell cycle arrest at the G2/M phase"},
      {"measurement": "expression of MDM2 (p90 and p60)", "setting": "[11]", "result": "no decrease in the expression"},
      {"measurement": "expression of YY1", "setting": "[11]", "result": "decreased"},
      {"measurement": "expression of p53, p63 and p73", "setting": "[11]", "result": "did not show any change"},
      {"measurement": "liver toxicity or adverse effect on major organs", "setting": "[12]", "result": "any liver toxicity or adverse effect on major organs was not observed"},
      {"measurement": "survival", "setting": "[12]", "result": "all the mice survived"},
      {"measurement": "presence in cancer tissues after injection", "setting": "[13]", "result": "observed in cancer tissues even 5 days after injection"},
      {"measurement": "induction of cell death", "setting": "[14]", "result": "cell death was induced from the second week"},
      {"measurement": "growth inhibition and cell death efficacy", "setting": "[15]", "result": "cancer cell-specific growth inhibition and cell death efficacy"},
      {"measurement": "immune response of sera from rabbits injected with ACP52CG and ACP52CK three times (ELISA)", "setting": "[4]", "result": "did not induce immune responses"},
      {"measurement": "cell death induction mechanism", "setting": "[16]", "result": "apoptosis via activation of caspases"},
      {"measurement": "expression of CDC25c, CDK1, and cyclin B proteins", "setting": "[16]; [18]", "result": "decreased expression of CDC25c, CDK1, and cyclin B proteins"},
      {"measurement": "expression of CHK1/2 protein", "setting": "[16]; [18]", "result": "increased expression of CHK1/2 protein"},
      {"measurement": "degradation in solution containing 10% serum", "setting": "[17]", "result": "not degraded at all until 24 hours"}
    ]}
  ]
}
